# Experimental data as given in PubChem BioAssay AID1963833 (Molecular Pharmacology Branch, DTP, NCI, 2024).
# Test system: 883617-216-R-J1-PDC complex spheroid viability
# Test: Anticancer human tumor 883617-216-R-J1-PDC patient-derived bladder carcinoma cell line growth inhibition [POLQ]
# Conditions: for IC50: curve of first compound; for viability, T/C: stronger effect = lower value
# Protocol: Multicellular complex tumor spheroid response to Polymerase (POL) inhibitors (novobiocin, ART-558, RP6685) in combination with a variety of drugs and investigational agents in selected tumor cell lines
# The POL inhibitors (novobiocin, ART-558, and RP6685) were evaluated both individually and in combination with standard of care and investigational anticancer small molecules within a complex spheroid model of solid tumors. . Complex spheroids include a stromal component modeled by human endothelial cells (HUVEC) and fibroblasts modeled by human mesenchymal stem cells (MSCs). The concentration ranges selected for each drug and investigational agent were based upon clinically achievable concentrations if the clinical Cmax of the agent was known.
# Compounds. The drugs and investigational agents: novobiocin (NSC847541), ART-558 (NSC835418), RP-6685 (NSC848927), peposertib (NSC802822), ceralasertib (NSC780249), elimusertib (NSC800525), camonsertib (NSC841442), AZD-1390 (NSC803789), olaparib (NSC753686), talazoparib (NSC767125), rucaparib (NSC756644), sotorasib (NSC818433), MRTX-1133 (NSC836407), SN-38 (NSC673596), topotecan (NSC609699), epotoside (NSC141540), doxorubicin (NSC123127), gemcitabine (NSC613327), 5-fluorouracil (NSC19893), paclitaxel (NSC125973), vemurafenib (NSC761431), MSA-2 (NSC828583), SN-011 (NSC837082), adavosertib (NSC754352), prexasertib (NSC758257), carboplatin (NSC241240) and oxaliplatin (NSC266046), were obtained from the National Cancer Institute (NCI) Developmental Therapeutics Program Chemical Repository (21). The FDA-approved anticancer drug set is available from the Developmental Therapeutics Program at https://dtp.cancer.gov/organization/dscb/obtaining/. […] The stock solutions were prepared in dimethyl sulfoxide (DMSO, Sigma-Aldrich, St. Louis, MO, cat. D2650), except for the platinum compounds which were prepared in saline (Quality Biological, Gaithersburg, MD, cat. 114-055-101), at 800-fold the tested concentration and stored at -70 degrees C prior to their use. All drugs and investigational agents were tested over a range starting from a high concentration at or near the clinical Cmax and decreasing in half-log increments. If the clinical Cmax for an agent had not been determined, the highest concentration tested was 10 microM, except for SN-38, which was tested at a high concentration of 1 microM.
# Cell Culture. All cells were maintained in an incubator at 37 degrees C and 5% CO2 with 95% humidity. The PDC lines were cultured according to standard operating procedures established by the NCI PDMR (https://pdmr.cancer.gov). Table 3 of the manuscript, lists the cell lines along with the number of the three cell types plated to form the mct-spheroids and media for tumor cell growth. After thawing, all PDC lines, except 997537-175-T-J1-PDC and 415267-285-R-J2-PDC, were cultured in Matrigel-coated flasks prepared with a working solution of 1X Ham's F-12 nutrient mix, without supplementation (Thermo Fisher Scientific, cat. 11765054), 100 U/mL penicillin-streptomycin (Thermo Fisher Scientific, cat. 15140122), and 2.5% Matrigel (Corning Inc., Corning, NY, cat. 354248) for the first three passages. The two PDC lines 997537-175-T-J1-PDC and 415267-285-R-J2-PDC were cultured on uncoated flasks. The 857933-349-R-J2-PDC line was cultured in 6C/Colon 1B media containing advanced DMEM/F-12 (Thermo Fisher Scientific, cat. 12634028), 10 mM HEPES (Thermo Fisher Scientific, cat. 15630080), 1X GlutaMAX supplement (Thermo Fisher Scientific, cat. 35050061), 0.1 mg/mL primocin (InvivoGen, San Diego, CA, cat. ant-pm-2), 10% defined fetal bovine serum, heat inactivated (HyClone Laboratories Inc., Logan, UT, cat. SH30070.03HI), 50% L-WRN conditioned media (ATCC, cat. CRL-3276), 1.25 mM N-Acetyl-L-cysteine (Sigma-Aldrich, cat. A9165), 10 mM nicotinamide (Sigma-Aldrich, cat. N0636), 1X B-27 supplement (Thermo Fisher Scientific, cat. 17504044), 1X N-2 supplement (Thermo Fisher Scientific, cat. […]
# [1] = second compound 0.0316 µM, first compound 0.0316 µM
# [2] = second compound 0.0316 µM, first compound 0.1 µM
# [3] = second compound 0.0316 µM, first compound 0.316 µM
# [4] = second compound 0.0316 µM, first compound 1 µM
# [5] = second compound 0.0316 µM, first compound 3.16 µM
# [6] = second compound 0.0316 µM, first compound 10 µM
# [7] = second compound 0.1 µM, first compound 0.0316 µM
# [8] = second compound 0.1 µM, first compound 0.1 µM
# [9] = second compound 0.1 µM, first compound 0.316 µM
# [10] = second compound 0.1 µM, first compound 1 µM
# [11] = second compound 0.1 µM, first compound 3.16 µM
# [12] = second compound 0.1 µM, first compound 10 µM
# [13] = second compound 0.316 µM, first compound 0.0316 µM
# [14] = second compound 0.316 µM, first compound 0.1 µM
# [15] = second compound 0.316 µM, first compound 0.316 µM
# [16] = second compound 0.316 µM, first compound 1 µM
# [17] = second compound 0.316 µM, first compound 3.16 µM
# [18] = second compound 0.316 µM, first compound 10 µM
# [19] = second compound 1 µM, first compound 0.0316 µM
# [20] = second compound 1 µM, first compound 0.1 µM
# [21] = second compound 1 µM, first compound 0.316 µM
# [22] = second compound 1 µM, first compound 1 µM
# [23] = second compound 1 µM, first compound 3.16 µM
# [24] = second compound 1 µM, first compound 10 µM
# [25] = second compound 3.16 µM, first compound 0.0316 µM
# [26] = second compound 3.16 µM, first compound 0.1 µM
# [27] = second compound 3.16 µM, first compound 0.316 µM
# [28] = second compound 3.16 µM, first compound 1 µM
# [29] = second compound 3.16 µM, first compound 3.16 µM
# [30] = second compound 3.16 µM, first compound 10 µM
# [31] = second compound 10 µM, first compound 0.0316 µM
# [32] = second compound 10 µM, first compound 0.1 µM
# [33] = second compound 10 µM, first compound 0.316 µM
# [34] = second compound 10 µM, first compound 1 µM
# [35] = second compound 10 µM, first compound 3.16 µM
# [36] = second compound 10 µM, first compound 10 µM
# 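Note: spheroids exposed to compounds for seven days before readout.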
# 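Throughout, for viability, T/C: 100% = DMSO vehicle control viability.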
smiles,measurement,setting,value
CNCc1ccc(-c2[nH]c3cc(F)cc4c3c2CCNC4=O)cc1 + Cc1cccc(N(C)C(=O)C2C(O)CCN2c2nc(C)cc(C(F)(F)F)c2C#N)c1,IC50,second compound 0.0316 µM,> 10 µM
same,IC50,second compound 0.1 µM,> 10 µM
same,IC50,second compound 0.316 µM,> 10 µM
same,IC50,second compound 1 µM,> 10 µM
same,IC50,second compound 3.16 µM,> 10 µM
same,IC50,second compound 10 µM,> 10 µM
same,"viability, T/C",[1],91.1%
same,"viability, T/C",[2],97.6%
same,"viability, T/C",[3],93%
same,"viability, T/C",[4],90.3%
same,"viability, T/C",[5],93.4%
same,"viability, T/C",[6],82.7%
same,"viability, T/C",[7],98.4%
same,"viability, T/C",[8],95.7%
same,"viability, T/C",[9],93.8%
same,"viability, T/C",[10],104%
same,"viability, T/C",[11],89%
same,"viability, T/C",[12],81.6%
same,"viability, T/C",[13],91.8%
same,"viability, T/C",[14],92%
same,"viability, T/C",[15],94.2%
same,"viability, T/C",[16],90.6%
same,"viability, T/C",[17],94.9%
same,"viability, T/C",[18],75.2%
same,"viability, T/C",[19],92.6%
same,"viability, T/C",[20],83.6%
same,"viability, T/C",[21],89.5%
same,"viability, T/C",[22],97.5%
same,"viability, T/C",[23],96.9%
same,"viability, T/C",[24],80.9%
same,"viability, T/C",[25],98.7%
same,"viability, T/C",[26],95.3%
same,"viability, T/C",[27],86.8%
same,"viability, T/C",[28],84.2%
same,"viability, T/C",[29],107%
same,"viability, T/C",[30],88.6%
same,"viability, T/C",[31],106%
same,"viability, T/C",[32],98.6%
same,"viability, T/C",[33],105%
same,"viability, T/C",[34],102%
same,"viability, T/C",[35],107%
same,"viability, T/C",[36],93.3%
Nc1ccn(C2OC(CO)C(O)C2(F)F)c(=O)n1 (centres undefined) + Cc1cccc(N(C)C(=O)C2C(O)CCN2c2nc(C)cc(C(F)(F)F)c2C#N)c1,IC50,second compound 0.0316 µM,< 0.0316 µM
same,IC50,second compound 0.1 µM,< 0.0316 µM
same,IC50,second compound 0.316 µM,< 0.0316 µM
same,IC50,second compound 1 µM,< 0.0316 µM
same,IC50,second compound 3.16 µM,< 0.0316 µM
same,IC50,second compound 10 µM,< 0.0316 µM
same,"viability, T/C",[1],35.8%
same,"viability, T/C",[2],33.2%
same,"viability, T/C",[3],41.2%
same,"viability, T/C",[4],41.4%
same,"viability, T/C",[5],33.5%
same,"viability, T/C",[6],31.1%
same,"viability, T/C",[7],28%
same,"viability, T/C",[8],45.6%
same,"viability, T/C",[9],31.8%
same,"viability, T/C",[10],38.2%
same,"viability, T/C",[11],36.9%
same,"viability, T/C",[12],24.6%
same,"viability, T/C",[13],30.1%
same,"viability, T/C",[14],31.9%
same,"viability, T/C",[15],34%
same,"viability, T/C",[16],38.5%
same,"viability, T/C",[17],31.6%
same,"viability, T/C",[18],35.5%
same,"viability, T/C",[19],32.5%
same,"viability, T/C",[20],27.6%
same,"viability, T/C",[21],33.8%
same,"viability, T/C",[22],36.5%
same,"viability, T/C",[23],39.3%
same,"viability, T/C",[24],34.7%
same,"viability, T/C",[25],35%
same,"viability, T/C",[26],28.4%
same,"viability, T/C",[27],41.2%
same,"viability, T/C",[28],39.8%
same,"viability, T/C",[29],40.9%
same,"viability, T/C",[30],27.4%
same,"viability, T/C",[31],37.9%
same,"viability, T/C",[32],35.5%
same,"viability, T/C",[33],39.2%
same,"viability, T/C",[34],39.2%
same,"viability, T/C",[35],39.1%
same,"viability, T/C",[36],31.7%
